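Results reflect a 48-hour exposure of cells in 96-well plates to compound at five concentrations. TGI: concentration producing complete growth inhibition.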
Key:
Assay in all cases: inhibition of tumour cell growth, NCI panel, 48 h
[1] = tested on: COLO 205 colon
[2] = tested on: UO-31 renal
[3] = tested on: NCI/ADR-RES ovarian
[4] = tested on: SK-MEL-28 melanoma
[5] = tested on: UACC-62 melanoma
[6] = tested on: NCI-H23 lung
[7] = tested on: IGROV1 ovarian
[8] = tested on: SK-OV-3 ovarian
[9] = tested on: CCRF-CEM leukemia
[10] = tested on: HCT-116 colon
[11] = tested on: U251 CNS
[12] = tested on: ACHN renal
[13] = tested on: NCI-H226 lung
[14] = tested on: RPMI-8226 leukemia
[15] = tested on: RXF 393 renal
[16] = tested on: SK-MEL-2 melanoma
[17] = tested on: MCF7 breast
[18] = tested on: PC-3 prostate
[19] = tested on: MALME-3M melanoma
[20] = tested on: SK-MEL-5 melanoma
[21] = tested on: KM12 colon
[22] = tested on: TK-10 renal
[23] = tested on: BT-549 breast
[24] = tested on: DU-145 prostate
[25] = tested on: NCI-H460 lung
[26] = tested on: HT29 colon
[27] = tested on: OVCAR-5 ovarian
[28] = tested on: SN12C renal
[29] = tested on: M14 melanoma
[30] = tested on: HCC-2998 colon
[31] = tested on: UACC-257 melanoma
[32] = tested on: A549 NSCLC
[33] = tested on: MDA-MB-435
[34] = tested on: SF-539 CNS
[35] = tested on: CAKI-1 renal
[36] = tested on: SW-620 colon
[37] = tested on: MDA-MB-231 breast
[38] = tested on: LOX IMVI melanoma
[39] = tested on: SF-268 CNS
[40] = tested on: SF-295 CNS
[41] = tested on: NCI-H522 lung
[42] = tested on: MDA-N
[43] = tested on: EKVX NSCLC
[44] = tested on: OVCAR-8 ovarian
[45] = tested on: K-562 leukemia
[46] = tested on: 786-0 renal
[47] = tested on: OVCAR-4 ovarian
[48] = tested on: OVCAR-3 ovarian
[49] = tested on: A498 renal
[50] = tested on: SNB-19 CNS
[51] = tested on: T-47D breast
[52] = tested on: HCT-15 colon
[53] = tested on: HOP-92 NSCLC
[54] = tested on: HL-60(TB) leukemia
[55] = tested on: SNB-75 CNS
[56] = tested on: HOP-62 NSCLC
[57] = tested on: HS 578T breast
[58] = tested on: SR leukemia

Q: Which results are given for `CCOc1cc(-c2nc3cc(F)ccc3s2)ccc1O`?
A: TGI [1]: 34.6 µM; TGI [2]: 25.8 µM; TGI [3]: 50.2 µM; TGI [4]: 43.1 µM; TGI [5]: 31.6 µM; TGI [6]: 33.8 µM; TGI [7]: 26 µM; TGI [8]: 33 µM; TGI [9]: 18 µM; TGI [10]: 47.3 µM; TGI [11]: 41.3 µM; TGI [12]: 29.9 µM; TGI [13]: 34.2 µM; TGI [14]: 29.6 µM; TGI [15]: 35.4 µM; TGI [16]: 31.5 µM; TGI [17]: 23 µM; TGI [18]: 28.7 µM; TGI [19]: 29.8 µM; TGI [20]: 32.2 µM; TGI [21]: 36 µM; TGI [22]: 34 µM; TGI [23]: 30.2 µM; TGI [24]: 32.2 µM; TGI [25]: 34.9 µM; TGI [26]: 34.8 µM; TGI [27]: 33.3 µM; TGI [28]: 35.6 µM; TGI [29]: 33.4 µM; TGI [30]: 41.6 µM; TGI [31]: 31 µM; TGI [32]: 37 µM; TGI [33]: 33.8 µM; TGI [34]: 34.2 µM; TGI [35]: 32.2 µM; TGI [36]: 40.7 µM; TGI [37]: 48.4 µM; TGI [38]: 33.4 µM; TGI [39]: 31.2 µM; TGI [40]: 35.2 µM; TGI [41]: 24.2 µM; TGI [42]: 31.7 µM; TGI [43]: 24.4 µM; TGI [44]: 31.2 µM; TGI [45]: 25.9 µM; TGI [46]: 29.6 µM; TGI [47]: 43.2 µM; TGI [48]: 35 µM; TGI [49]: 26.2 µM; TGI [50]: 30.7 µM; TGI [51]: 28.1 µM; TGI [52]: 29 µM

Q: How did the TGI [53] turn out when `CC(=O)NC1C(OCc2ccccc2)OC(CO)C(O)C1OCC(=O)N[C@@H](C)C(=O)N[C@H](CCC(=O)NCCNc1ccc([N+](=O)[O-])c2[nH]c3ccccc3c(=O)c12)C(N)=O` (stereo partly drawn) was run?
A: 80.8 µM

Q: What about the TGI [1] of the same compound?
A: > 100 µM

Q: And the TGI [54]?
A: > 100 µM

Q: And the TGI [2]?
A: 37.4 µM

Q: What about the TGI [3] of the same compound?
A: 59.7 µM

Q: What about the TGI [4] of the same compound?
A: > 100 µM

Q: What about the TGI [5] of the same compound?
A: 46.6 µM

Q: What about the TGI [6] of the same compound?
A: 90 µM

Q: And the TGI [8]?
A: > 100 µM

Q: And the TGI [9]?
A: > 100 µM

Q: And the TGI [10]?
A: > 100 µM

Q: What about the TGI [55] of the same compound?
A: 61.5 µM

Q: And the TGI [11]?
A: > 100 µM

Q: And the TGI [12]?
A: 61.4 µM

Q: And the TGI [13]?
A: 32.4 µM

Q: What about the TGI [14] of the same compound?
A: > 100 µM

Q: What about the TGI [19] of the same compound?
A: > 100 µM

Q: And the TGI [20]?
A: > 100 µM

Q: And the TGI [21]?
A: > 100 µM

Q: And the TGI [22]?
A: 42.3 µM

Q: And the TGI [56]?
A: > 100 µM

Q: What about the TGI [23] of the same compound?
A: 46 µM

Q: What about the TGI [24] of the same compound?
A: > 100 µM

Q: What about the TGI [25] of the same compound?
A: 30.7 µM

Q: And the TGI [26]?
A: 85.8 µM

Q: What about the TGI [27] of the same compound?
A: > 100 µM

Q: And the TGI [28]?
A: > 100 µM

Q: What about the TGI [29] of the same compound?
A: > 100 µM

Q: And the TGI [30]?
A: 36 µM

Q: What about the TGI [57] of the same compound?
A: > 100 µM

Q: What about the TGI [31] of the same compound?
A: 54.3 µM

Q: What about the TGI [33] of the same compound?
A: > 100 µM

Q: And the TGI [58]?
A: > 100 µM

Q: And the TGI [34]?
A: > 100 µM

Q: And the TGI [35]?
A: > 100 µM

Q: And the TGI [36]?
A: > 100 µM

Q: And the TGI [37]?
A: 94.4 µM

Q: What about the TGI [38] of the same compound?
A: 99.5 µM

Q: What about the TGI [40] of the same compound?
A: > 100 µM

Q: What about the TGI [41] of the same compound?
A: > 100 µM

Q: And the TGI [42]?
A: > 100 µM

Q: What about the TGI [43] of the same compound?
A: 60.5 µM

Q: What about the TGI [44] of the same compound?
A: 61.2 µM

Q: And the TGI [45]?
A: > 100 µM

Q: And the TGI [46]?
A: 83.2 µM

Q: What about the TGI [47] of the same compound?
A: 67.9 µM

Q: What about the TGI [48] of the same compound?
A: > 100 µM

Q: What about the TGI [49] of the same compound?
A: 58 µM

Q: What about the TGI [50] of the same compound?
A: 93.2 µM

Q: And the TGI [51]?
A: > 100 µM

Q: What about the TGI [52] of the same compound?
A: 44.9 µM
